Source: patent US12568972B2, “Pyridazinol compounds and derivatives, preparation methods, herbicidal compositions and applications thereof” (Qingdao Kingagroot Chemical Compound Co., Ltd., priority 2018, dated 2026)

Legend:
Assay in all cases: Post-emergence test, weed control effect
Type in all cases: in vivo
Conditions in all cases: after 3 weeks
[1] = tested on: Amaranthus retroflexus
Summary of the method: (§1)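 Seeds are sown in soil pots and raised in the greenhouse until the 2-3 leaf stage. Plants are then sprayed with compound dissolved in acetone with Tween-80, diluted in water and supplemented with 80% vegetable oil methyl ester synergist at 1500 g/ha, and fresh weight inhibition is rated 0-10 three weeks later.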

[2] = tested on: Chenopodiaceae
Summary of the method: as §1

[3] = tested on: Rorippa indica
Summary of the method: as §1

[4] = tested on: Veronica polita
Summary of the method: as §1

CC(C)(C)CSC(=O)Oc1cc(C(F)(F)F)nnc1-c1cccc(Br)c1 [Compound 1-51]
10: weed control effect, Amaranthus retroflexus (activity level) ([1]; Dose 3000 g/ha) | weed control effect, Chenopodiaceae (activity level) ([2]; Dose 3000 g/ha) | weed control effect, Rorippa indica (activity level) ([3]; Dose 3000 g/ha) | weed control effect, Veronica polita (activity level) ([4]; Dose 3000 g/ha)

CCC(=O)Oc1cc(C(F)(F)F)nnc1-c1ccc(F)c(F)c1 [Compound 1-3]
10: weed control effect, Amaranthus retroflexus (activity level) ([1]; Dose 3000 g/ha) | weed control effect, Chenopodiaceae (activity level) ([2]; Dose 3000 g/ha) | weed control effect, Rorippa indica (activity level) ([3]; Dose 3000 g/ha) | weed control effect, Veronica polita (activity level) ([4]; Dose 3000 g/ha)

CC(C)(C)SC(=O)Oc1cc(C(F)(F)F)nnc1-c1cc(Cl)ccc1Cl [Compound 1-47]
10: weed control effect, Amaranthus retroflexus (activity level) ([1]; Dose 3000 g/ha) | weed control effect, Chenopodiaceae (activity level) ([2]; Dose 3000 g/ha) | weed control effect, Rorippa indica (activity level) ([3]; Dose 3000 g/ha) | weed control effect, Veronica polita (activity level) ([4]; Dose 3000 g/ha)

Oc1cc(C(F)(F)F)nnc1-c1cccc(Br)c1 [Compound 31]
10: weed control effect (activity level), Amaranthus retroflexus ([1]; dose 1000 g/ha) | weed control effect (activity level), Chenopodiaceae ([2]; dose 1000 g/ha) | weed control effect (activity level), Rorippa indica ([3]; dose 1000 g/ha) | weed control effect (activity level), Veronica polita ([4]; dose 1000 g/ha)

Cn1cncc1-c1nnc(C(F)(F)F)cc1O [Compound 857]
10: weed control effect (activity level), Amaranthus retroflexus ([1]; Dose 3000 g/ha) | weed control effect (activity level), Chenopodiaceae ([2]; Dose 3000 g/ha) | weed control effect (activity level), Rorippa indica ([3]; Dose 3000 g/ha) | weed control effect (activity level), Veronica polita ([4]; Dose 3000 g/ha)

O=C(Oc1cc(C(F)(F)F)nnc1-c1ccc(F)c(F)c1)c1cc2ccccc2o1 [Compound 1-120]
10: weed control effect, Amaranthus retroflexus (activity level) ([1]; Dose 3000 g/ha) | weed control effect, Chenopodiaceae (activity level) ([2]; Dose 3000 g/ha) | weed control effect, Rorippa indica (activity level) ([3]; Dose 3000 g/ha) | weed control effect, Veronica polita (activity level) ([4]; Dose 3000 g/ha)

Cn1cccc1C(=O)Oc1cc(C(F)(F)F)nnc1-c1ccccc1 [Compound 1-105]
10: weed control effect, Amaranthus retroflexus (activity level) ([1]; Dose 3000 g/ha) | weed control effect, Chenopodiaceae (activity level) ([2]; Dose 3000 g/ha) | weed control effect, Rorippa indica (activity level) ([3]; Dose 3000 g/ha) | weed control effect, Veronica polita (activity level) ([4]; Dose 3000 g/ha)

Oc1cc(C(F)(F)F)nnc1-c1cncc(F)c1 [Compound 963]
10: weed control effect (activity level), Amaranthus retroflexus ([1]; Dose 3000 g/ha) | weed control effect (activity level), Chenopodiaceae ([2]; Dose 3000 g/ha) | weed control effect (activity level), Rorippa indica ([3]; Dose 3000 g/ha) | weed control effect (activity level), Veronica polita ([4]; Dose 3000 g/ha)

Oc1cc(C(F)(F)F)nnc1-c1cncc(Cl)c1Cl [Compound 996]
10: weed control effect (activity level), Amaranthus retroflexus ([1]; Dose 3000 g/ha) | weed control effect (activity level), Chenopodiaceae ([2]; Dose 3000 g/ha) | weed control effect (activity level), Rorippa indica ([3]; Dose 3000 g/ha) | weed control effect (activity level), Veronica polita ([4]; Dose 3000 g/ha)

Oc1cc(C(F)(F)F)nnc1-c1c(F)cc(F)cc1F [Compound 52]
10: weed control effect (activity level), Amaranthus retroflexus ([1]; dose 1000 g/ha) | weed control effect (activity level), Chenopodiaceae ([2]; dose 1000 g/ha) | weed control effect (activity level), Rorippa indica ([3]; dose 1000 g/ha) | weed control effect (activity level), Veronica polita ([4]; dose 1000 g/ha)

Oc1cc(C(F)(F)F)nnc1-c1cccnc1Br [Compound 965]
10: weed control effect (activity level), Amaranthus retroflexus ([1]; Dose 3000 g/ha) | weed control effect (activity level), Chenopodiaceae ([2]; Dose 3000 g/ha) | weed control effect (activity level), Rorippa indica ([3]; Dose 3000 g/ha) | weed control effect (activity level), Veronica polita ([4]; Dose 3000 g/ha)

Cc1ccc(-c2nnc(C(F)(F)F)cc2OC(=O)c2ccccc2C)cc1 [Compound 1-80]
10: weed control effect, Amaranthus retroflexus (activity level) ([1]; Dose 3000 g/ha) | weed control effect, Chenopodiaceae (activity level) ([2]; Dose 3000 g/ha) | weed control effect, Rorippa indica (activity level) ([3]; Dose 3000 g/ha) | weed control effect, Veronica polita (activity level) ([4]; Dose 3000 g/ha)

Oc1cc(C(F)(F)F)nnc1-c1c(F)cccc1F [Compound 36]
10: weed control effect (activity level), Amaranthus retroflexus ([1]; dose 1000 g/ha) | weed control effect (activity level), Chenopodiaceae ([2]; dose 1000 g/ha) | weed control effect (activity level), Rorippa indica ([3]; dose 1000 g/ha) | weed control effect (activity level), Veronica polita ([4]; dose 1000 g/ha)

Oc1cc(C(F)(F)F)nnc1-c1ccc2occc2c1 [Compound 595]
10: weed control effect (activity level), Amaranthus retroflexus ([1]; Dose 3000 g/ha) | weed control effect (activity level), Chenopodiaceae ([2]; Dose 3000 g/ha) | weed control effect (activity level), Rorippa indica ([3]; Dose 3000 g/ha) | weed control effect (activity level), Veronica polita ([4]; Dose 3000 g/ha)

COc1ccccc1-c1nnc(C(F)(F)F)cc1O [Compound 94]
10: weed control effect (activity level), Amaranthus retroflexus ([1]; dose 1000 g/ha) | weed control effect (activity level), Chenopodiaceae ([2]; dose 1000 g/ha) | weed control effect (activity level), Rorippa indica ([3]; dose 1000 g/ha) | weed control effect (activity level), Veronica polita ([4]; dose 1000 g/ha)

Oc1cc(C(F)(F)F)nnc1-c1ccc2cnccc2c1 [Compound 634]
10: weed control effect (activity level), Amaranthus retroflexus ([1]; Dose 3000 g/ha) | weed control effect (activity level), Chenopodiaceae ([2]; Dose 3000 g/ha) | weed control effect (activity level), Rorippa indica ([3]; Dose 3000 g/ha) | weed control effect (activity level), Veronica polita ([4]; Dose 3000 g/ha)

O=C1CCCCN1C(=O)Oc1cc(C(F)(F)F)nnc1-c1ccc(F)cc1 [Compound 1-69]
10: weed control effect, Amaranthus retroflexus (activity level) ([1]; Dose 3000 g/ha) | weed control effect, Chenopodiaceae (activity level) ([2]; Dose 3000 g/ha) | weed control effect, Rorippa indica (activity level) ([3]; Dose 3000 g/ha) | weed control effect, Veronica polita (activity level) ([4]; Dose 3000 g/ha)

Cn1ncc(CC(F)(F)F)c1-c1nnc(C(F)(F)F)cc1O [Compound 825]
10: weed control effect (activity level), Amaranthus retroflexus ([1]; Dose 3000 g/ha) | weed control effect (activity level), Chenopodiaceae ([2]; Dose 3000 g/ha) | weed control effect (activity level), Rorippa indica ([3]; Dose 3000 g/ha) | weed control effect (activity level), Veronica polita ([4]; Dose 3000 g/ha)
